From patent US20010048926A1, “SYNTHETIC PEPTIDE VACCINES FOR DENTAL CARIES” (priority 1992, published 2001)

Legend:
[1] = test system: S. sobrinus GTF; assay: ELISA of serum IgG antibody reacting with intact S. sobrinus GTF; type: in vivo; details: 63 day sera, n=4-5 per group; FIG. 3
Text: Glucosyltransferases: Glucosyltransferases (GTF) from S. sobrinus strain 6715 were purified from culture supernatants after bacterial growth in glucose-containing defined media, as described in Taubman et al. (J. Oral Pathol. 17:466-470 (1988)). Enzymes were separated from other culture supernatant proteins by affinity chromatography on Sephadex G-100 (Pharmacia Fine Chemicals), using 6M guanidine HCl as the eluting solvent. GTFs were then obtained from the guanidine HCl eluate by FPLC chromatography on Superose 6 (Pharmacia) using 6M guanidine for elution. GTF preparations contained a mixture of GTF-I, GTF-Sd, and GTF-Si.
Immunogenicity of Peptides: Sprague Dawley CD strain 43 day-old male rats (Charles River Laboratories) were used for injection. Six groups of 4-5 rats were injected subcutaneously in the vicinity of the salivary glands with 50 μg each of GGY, AND, SAND or CAT peptide constructs, 10 μg of GTF, or sham-immunized with buffer alone. The initial injection included complete Freund adjuvant (CFA; Difco); two subsequent injections at 21-day intervals included incomplete Freund adjuvant. Animals were bled prior to injection and 14-21 days after each injection. Serum from coagulated and centrifuged blood was stored frozen at −20° C. until use.
ELISA: Serum IgG and salivary IgA antibodies were tested by enzyme-linked immunosorbent assay (ELISA). Polystyrene microtiter plates (Flow Laboratories) were coated with […] of each peptide construct or 0.5 μg of S. sobrinus GTF. Antibody activity was then measured by incubation with 1:100 to 1:10^6 dilutions of sera, or 1:4 to 1:32 dilutions of saliva. Plates were then developed for IgG antibody rabbit anti-rat IgG followed in sequence by alkaline phosphatase goat anti-rabbit IgG (Biosource Inc.) and p-nitrophenylphosphate (Sigma). A mouse monoclonal reagent to rat α chain (Zymed, South San Francisco, Calif.) was used with biotinylated goat anti-mouse IgG (TAGO, Inc., Burlingame, Calif.) and avidin-alkaline phosphatase (Cappel) to reveal levels of salivary IgA antibody to peptides. Reactivity was recorded as absorbance (A405 nm) in a micro plate reader (Biotek Instruments). Data are reported as absorbance (A405 nm), reciprocal titer, or as ELISA units (EU) which were calculated relative to the levels of appropriate reference sera or salivas from Sprague Dawley rats thrice immunized with the respective peptide construct. Dilutions of 1:12,800 and 1:6,400 (A405 nm approximately 1.0) were considered 100 EU for serum IgG to the GGY and AND constructs, respectively. Dilutions of 1:32 were considered 100 EU for salivary IgA to both GGY and AND constructs.

[2] = test system: anti-GGY serum; assay: Epitope mapping by ELISA inhibition, anti-GGY serum on GGY-coated plates; type: binding, rat; details: anti-GGY serum preincubated with heptamer or intact peptide; FIG. 8
Method: Epitope Mapping: B cell epitopes were mapped on the GGY and AND peptides by an ELISA inhibition technique. Anti-GGY or anti-AND sera were preincubated with 13 separate heptamers representing the incremental peptide sequence of the respective peptide, or with intact peptide, followed by the conventional ELISA with intact peptide-coated plates. B cell epitopes were indicated by a significant reduction in absorbance.

[3] = test system: S. mutans SJ32; assay: Protection experiments: caries assessment (modified Keyes method) after S. mutans infection; type: in vivo, Sprague-Dawley rats
Text: Experimental Protocol for Protection Experiments: Animals used in the present experiments were derived from germ-free Sprague-Dawley rats that had been reared in the isolator facility of Charles River Laboratories, Wilmington, Mass. (Area 051). […] These rats served as initial breeding stock for dams used in these experiments and were regularly monitored for absence of mutans streptococci. The progeny of the dams used for the present experiments were weaned at approximately 21 days and were subsequently fed high sucrose Diet 2000.
Two experiments were performed. Groups (n=11-12) of 23-26 day-old rats were subcutaneously (sc) injected in the salivary gland vicinity with (experiment 1) GGY (50 μg), AND (50 μg) or GTF(10 μg), or phosphate buffered saline (control animals), or (experiment 2) GGY (50 ;μg) or PBS. Each antigen was incorporated with complete Freund adjuvant in both experiments. Eight (experiment 1) or 14 (experiment 2) days later, rats were reinjected with PBS or with the same antigen and dose in incomplete Freund adjuvant. Six (experiment 1) or 12 (experiment 2) days after the second injection, animals were bled from the tail vein, and saliva was collected after injection of pilocarpine (1.0 mg/100 g body weight). Fourteen (experiment 1) or 11 (experiment 2) days after the second injection, all rats were orally infected with approximately 10^8 S. mutans for 3 consecutive days. Both experiments were terminated 63 days after initial infection.
Caries assessment: The extent and depth of carious lesions in all rat molar teeth (caries score) were microscopically evaluated by a modified Keyes method as previously described (Taubman et al., J. Immunol. 118:710-720 (1977)). Caries scores were determined separately on smooth and on sulcal dental surfaces.

Q: For GGYEFLLANDVDNSNPVVQ, which “IgG antibody reactivity with intact S. sobrinus GTF” value [1] is on record?
A: significant reactivity with GTF

Q: What about the “inhibition of GGY antibody binding to intact peptide-coated plates” value [2] of the same sequence?
A: completely inhibited

Q: And the “mean and median total, smooth surface, and occlusal caries scores vs sham-injected group” value ([3]; both experiments)?
A: lower than the respective scores of the sham-injected group

Q: What about the “Total molar caries scores vs sham-injected groups” value ([3]; both experiments, p<0.05) of the same sequence?
A: significantly lower

Q: What about the “smooth surface caries vs sham-injected group” value ([3]; experiment 1, GGY p<0.032, GTF p<0.045) of the same sequence?
A: Protection was most evident on smooth surfaces

Q: What about the “smooth surface caries vs sham-injected group” value ([3]; experiment 2, p<0.027) of the same sequence?
A: Protection was most evident on smooth surfaces

Q: What about the “protection after infection of rats with cariogenic S. mutans” value ([3]; summary statement) of the same sequence?
A: significant protection
